Results taken from patent US8299252B2, “Pyrazolopyridine and pyrrolopyridine multikinase inhibitors” (Chugai Seiyaku Kabushiki Kaisha, priority 2005, dated 2012).
Converted amounts (≈) assume the structure as drawn.

What was measured:
[1] = system: human colon cancer cell line HCT116 cells; experiment: Cell proliferation inhibitory activity, HCT116; assay type: cell-based; conditions: for IC50: Homo sapiens, HCT-116, read-out: 50% proliferation inhibitory concentration (IC50 value) HCT116, HCT116, 72 hours, WST-8
Protocol: (§1) The compounds according to the present invention were measured for cancer cell proliferation inhibitory activity and human umbilical vein endothelial cell (HUVEC) proliferation inhibitory activity.
(§2) Test compounds were serially diluted with dimethyl sulfoxide and then diluted 50 times with Ca^2+- and Mg^2+-free phosphate-buffered saline, and 20 μL of each of the resulting solution was dispensed into a 96-well plate. […] Each cell suspension contains approximately 3000 cells/180 μL. These cell suspensions were dispensed to the plate containing the test compounds at 180 μL/well and incubated in a 5% carbon dioxide gas incubator at 37° C. for 72 hours. 20 μL of WST-8 (HCT116, Dojin) or WST-1 (HUVEC, Roche Diagnostics) was added to each well, and absorbance at 450 nm (reference wavelength: 650 nm) was measured.

[2] = system: human umbilical vein endothelial cells (HUVEC), VEGF-dependent proliferation; experiment: VEGF-dependent HUVEC proliferation inhibition assay; assay type: cell-based; conditions: read-out: 50% proliferation inhibitory concentration (IC50 value) HUVEC (VEGF-dependent), 20 ng/mL of VEGF, 72 hours, WST-1
Protocol: as §1, §2

[3] = system: human umbilical vein endothelial cells (HUVEC), VEGF-independent proliferation; experiment: VEGF-independent HUVEC proliferation inhibition assay; assay type: cell-based; conditions: read-out: 50% proliferation inhibitory concentration (IC50 value) HUVEC (VEGF-independent), vascular endothelial cell growth-promoting agent and heparin, 72 hours, WST-1
Protocol: as §1, §2

Raf-1 = Raf-1 (Homo sapiens, UniProt P04049); experiment: Raf-1 enzyme inhibition assay (MEK-1 phosphorylation, HTRF); assay type: biochemical; conditions: for IC50: phosphorylation of His6-MEK-1
Protocol: (§3) The compounds according to the present invention were measured for Raf-1 and KDR enzyme inhibitory activities.
(§4) The Raf-1 inhibitory activity was measured by the activity of Raf-1 protein for inhibiting phosphorylation of MEK-1 protein having six histidine residues (His6) fused to the N-terminus thereof. […] The KDR inhibitory activity was measured by the activity of KDR intracellular domain protein for inhibiting phosphorylation of a biotinylated peptide ([…]).

[4] = target: KDR intracellular domain protein (Homo sapiens, UniProt P35968); experiment: KDR enzyme inhibition assay (biotinylated peptide phosphorylation, HTRF); assay type: biochemical; conditions: phosphorylation of biotinylated peptide
Protocol: as §3, §4

[5] = Solubility in fasted state simulated intestinal fluid; assay type: physicochemical; conditions: pH 6.5, fassif, kinetic from dmso stock, fasted state simulated intestinal fluid (pH6.5), 37° C.
Protocol: 2 μL of each dimethyl sulfoxide solutions containing test compounds were dispensed into wells of a 96-well plate, and 200 μL of fasted state simulated intestinal fluid (pH6.5) was added to each well. The plate was shaken at 37° C. for 20 hours. The solution was filtered through a membrane filter, and 101 μL of the filtrate was transferred to a UV plate, followed by addition of 100 μL of a solution mixture of ethanol:water=2:1 thereto. Separately, as a standard, 101 μL of a solution prepared by 2 μL of a dimethyl sulfoxide solution, 4 μL of dimethyl sulfoxide, 400 μL of ethanol, and 200 μL of water was transferred to a UV plate, and 100 μL of fasted state simulated intestinal fluid (pH6.5) was added thereto. The solubility was calculated by the following expression: Solubility=[(absorbance of test solution)−blank]/[(absorbance of standard solution)−blank]×165 μM (165 μM is the concentration of the standard solution) Composition of the fasted state simulated intestinal fluid (pH6.5)
The composition was prepared in compliance with the description in E. Galia, et al., Pharm. Res. 1998, 698.
Taurocholic acid (161 mg), L-α-phosphatidylcholine (59 mg), potassium dihydrogen phosphate (0.39 g), and potassium chloride (0.77 g) were added to about 90 mL of water. The resulting solution was adjusted to a pH of 6.5 with a sodium hydroxide aqueous solution and then diluted to a volume of 100 mL with water. The solution was filtered through a membrane filter.

[6] = target: T1, FLT3 intracellular domain protein (Homo sapiens, UniProt P36888); experiment: Flt3 enzyme inhibition test (HTRF); assay type: biochemical; conditions: phosphorylation of biotinylated peptide
T1 sequence (P36888 564-993 limits assumed): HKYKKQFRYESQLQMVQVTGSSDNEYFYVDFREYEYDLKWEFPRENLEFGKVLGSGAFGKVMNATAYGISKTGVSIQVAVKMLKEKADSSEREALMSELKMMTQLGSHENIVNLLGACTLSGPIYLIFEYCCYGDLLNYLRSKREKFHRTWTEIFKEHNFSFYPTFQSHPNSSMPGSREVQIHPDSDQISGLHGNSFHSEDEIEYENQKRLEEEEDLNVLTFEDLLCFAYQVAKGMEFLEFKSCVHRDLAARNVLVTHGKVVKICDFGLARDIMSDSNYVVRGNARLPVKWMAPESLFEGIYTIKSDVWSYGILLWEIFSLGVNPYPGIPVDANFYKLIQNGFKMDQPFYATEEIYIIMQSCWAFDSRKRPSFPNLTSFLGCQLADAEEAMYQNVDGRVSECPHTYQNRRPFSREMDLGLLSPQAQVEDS
Protocol: The FLT3 inhibitory activity was measured by the activity of FLT3 intracellular domain protein inhibiting for phosphorylation of a biotinylated peptide ([…]).

Sequence of KDR intracellular domain protein (P35968 786-1356 limits assumed): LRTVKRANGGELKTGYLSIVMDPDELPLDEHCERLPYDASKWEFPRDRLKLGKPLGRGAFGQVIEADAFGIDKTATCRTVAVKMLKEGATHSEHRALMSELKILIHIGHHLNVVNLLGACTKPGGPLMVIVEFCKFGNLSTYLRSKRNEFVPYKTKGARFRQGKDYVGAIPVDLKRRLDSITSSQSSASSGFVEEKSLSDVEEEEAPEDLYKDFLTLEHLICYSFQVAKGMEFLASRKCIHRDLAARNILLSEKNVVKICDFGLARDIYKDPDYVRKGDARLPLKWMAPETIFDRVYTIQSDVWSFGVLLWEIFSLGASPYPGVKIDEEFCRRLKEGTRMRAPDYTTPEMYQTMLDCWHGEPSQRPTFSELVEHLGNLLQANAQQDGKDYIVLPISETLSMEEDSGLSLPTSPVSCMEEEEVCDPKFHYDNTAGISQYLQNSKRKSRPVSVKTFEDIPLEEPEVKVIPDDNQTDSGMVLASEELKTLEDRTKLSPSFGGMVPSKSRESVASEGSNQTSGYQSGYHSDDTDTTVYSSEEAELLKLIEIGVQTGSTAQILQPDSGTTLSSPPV
Sequence of Raf-1 (P04049 whole entry): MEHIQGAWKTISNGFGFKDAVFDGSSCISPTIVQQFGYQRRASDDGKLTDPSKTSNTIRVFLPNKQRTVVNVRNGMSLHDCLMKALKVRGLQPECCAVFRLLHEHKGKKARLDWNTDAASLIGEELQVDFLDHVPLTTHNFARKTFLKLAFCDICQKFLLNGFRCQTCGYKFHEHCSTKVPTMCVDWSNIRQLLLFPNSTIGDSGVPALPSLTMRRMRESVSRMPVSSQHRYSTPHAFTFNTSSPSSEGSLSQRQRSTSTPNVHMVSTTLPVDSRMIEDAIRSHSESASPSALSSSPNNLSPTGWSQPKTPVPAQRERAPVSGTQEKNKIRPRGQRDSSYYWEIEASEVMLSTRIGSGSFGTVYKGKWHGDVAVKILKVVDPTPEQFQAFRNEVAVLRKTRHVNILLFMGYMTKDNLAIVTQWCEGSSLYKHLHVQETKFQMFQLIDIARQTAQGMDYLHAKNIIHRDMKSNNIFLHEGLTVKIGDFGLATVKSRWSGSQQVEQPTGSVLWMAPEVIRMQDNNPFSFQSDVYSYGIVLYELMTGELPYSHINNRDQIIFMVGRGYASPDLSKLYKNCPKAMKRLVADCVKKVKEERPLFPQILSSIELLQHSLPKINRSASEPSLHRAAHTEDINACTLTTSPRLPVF

| Compound | IC50 [1] | Raf-1 inhibitory activity (in words) (Raf-1) | IC50 (Raf-1) | IC50 [4] | solubility at 20 h [5] | IC50 [6] | IC50 [2] | IC50 [3] | proliferation inhibitory activity for HCT116 cells (in words) [1] |
| --- | --- | --- | --- | --- | --- | --- | --- | --- | --- |
| O=C(Nc1ccc(Oc2ccnc3[nH]ccc23)cc1)Nc1ccc2c(CCCF)cccc2c1 [Compound 46, 1-[5-(3-Fluoropropyl)naphthalen-2-yl]-3-[4-(1H-pyrrolo[2,3-b]pyridin-4-yloxy)phenyl]urea] | 3300 nM | – | – | – | – | – | 15 nM | 4100 nM | – |
| O=C(Nc1ccc(F)cc1)Nc1ccc(Oc2ccnc3[nH]ccc23)cc1 [Compound B, reference compound] | – | does not have Raf-1 inhibitory activity | – | – | – | – | – | – | does not have proliferation inhibitory activity |
| C=Cc1ccc(NC(=O)Nc2ccc(Oc3ccnc4[nH]ccc34)cc2)cc1C(F)(F)F [Compound 56, 1-[4-(1H-Pyrrolo[2,3-b]pyridin-4-yloxy)phenyl]-3-(3-trifluoromethyl-4-vinyl-phenyl)urea] | 2200 nM | – | 70 nM | 16 nM | – | – | 12 nM | 3100 nM | – |
| O=C(Nc1ccc(Oc2ccnc3[nH]ccc23)cc1)Nc1ccc(OCC(F)(F)F)c(C(F)(F)F)c1 [Compound 13, 1-[4-(1H-Pyrrolo[2,3-b]pyridin-4-yloxy)phenyl]-3-[4-(2,2,2-trifluoro-ethoxy)-3-(trifluoromethyl)phenyl]urea] | 3100 nM | – | – | – | 15 µg/mL (≈ 29.4 µM) | – | 7.4 nM | 1200 nM | – |
| O=C(Nc1ccc(Oc2ccnc3[nH]ccc23)cc1)Nc1ccc(CF)c(C(F)(F)F)c1 [Compound 51, 1-(4-fluoromethyl-3-trifluoromethyl-phenyl)-3-[4-(1H-pyrrolo[2,3-b]pyridin-4-yloxy)phenyl]urea] | 1000 nM | – | 35 nM | 0.35 nM | 15 µg/mL (≈ 33.8 µM) | 16 nM | 4 nM | 800 nM | – |
| CCc1ccc(NC(=O)Nc2ccc(Oc3ccnc4[nH]ccc34)cc2)cc1C(F)(F)F [Compound 55, 1-(4-Ethyl-3-trifluoromethyl-phenyl)-3-[4-(1H-pyrrolo[2,3-b]pyridin-4-yloxy)phenyl]urea] | 1500 nM | – | 47 nM | 8.5 nM | – | – | 7.2 nM | 1400 nM | – |
| O=C(Nc1ccc(Oc2ccnc3[nH]ccc23)cc1)Nc1ccc(OC(F)(F)F)c(C(F)(F)F)c1 [Compound 20, 1-[4-(1H-Pyrrolo[2,3-b]pyridin-4-yloxy)phenyl]-3-[4-trifluoromethoxy-3-(trifluoromethyl)phenyl]urea] | – | – | – | – | 25 µg/mL (≈ 50.4 µM) | – | – | – | – |
| O=C(Nc1ccc(Oc2ccnc3[nH]ccc23)cc1)Nc1cc(CCCC(F)F)cc(C(F)(F)F)c1 [Compound 41, 1-[3-(4,4-Difluorobutyl)-5-(trifluoromethyl)phenyl]-3-[4-(1H-pyrrolo[2,3-b]pyridin-4-yloxy)phenyl]urea] | – | – | 82 nM | 3.5 nM | – | – | – | – | – |
| O=C(Nc1ccc(Oc2ccnc3[nH]ccc23)cc1)Nc1cc(C(F)(F)F)cc(C(F)(F)F)c1 [Compound 50, 1-[3,5-Bis(trifluoromethyl)phenyl]-3-[4-(1H-pyrrolo[2,3-b]pyridin-4-yloxy)phenyl]urea] | – | – | – | – | 35 µg/mL (≈ 72.9 µM) | – | – | – | – |
| O=C(Nc1ccc(Oc2ccnc3[nH]ccc23)cc1)Nc1ccc(CCCCF)c(C(F)(F)F)c1 [Compound 34, 1-[4-(4-Fluorobutyl)-3-(trifluoromethyl)phenyl]-3-[4-(1H-pyrrolo[2,3-b]pyridin-4-yloxy)phenyl]urea] | – | – | – | – | 21 µg/mL (≈ 43.2 µM) | – | – | – | – |
| COCCOc1cccc2cc(NC(=O)Nc3ccc(Oc4ccnc5[nH]ccc45)cc3)ccc12 [Compound 3, 1-[5-(2-Methoxyethoxy)naphthalen-2-yl]-3-[4-(1H-pyrrolo[2,3-b]pyridin-4-yloxy)phenyl]urea] | 3400 nM | – | – | – | – | 15 nM | 3.7 nM | 4400 nM | – |
| O=C(Nc1ccc(Oc2ccnc3[nH]ccc23)cc1)Nc1cc(OC2CCOCC2)cc(C(F)(F)F)c1 [Compound 9, 1-[4-(1H-Pyrrolo[2,3-b]pyridin-4-yloxy)phenyl]-3-[3-(tetrahydro-pyran-4-yloxy)-5-(trifluoromethyl)phenyl]urea] | 1700 nM | – | 65 nM | 2.2 nM | – | – | 30 nM | 1800 nM | – |
| O=C(Nc1ccc(Oc2ccnc3[nH]ccc23)cc1)Nc1ccc2c(CCF)cccc2c1 [Compound 42, 1-[5-(2-Fluoroethyl)naphthalen-2-yl]-3-[4-(1H-pyrrolo[2,3-b]pyridin-4-yloxy)phenyl]urea] | 4400 nM | – | – | – | – | 6 nM | 50 nM | 5900 nM | – |

The next lines start with results.

| IC50 [1] | Raf-1 inhibitory activity (in words) (Raf-1) | IC50 (Raf-1) | IC50 [4] | solubility at 20 h [5] | IC50 [6] | Compound | IC50 [2] | IC50 [3] | proliferation inhibitory activity for HCT116 cells (in words) [1] |
| --- | --- | --- | --- | --- | --- | --- | --- | --- | --- |
| 1500 nM | – | 62 nM | 0.95 nM | – | – | O=C(Nc1ccc(Oc2ccnc3[nH]ccc23)cc1)Nc1cc(CCC(F)F)cc(C(F)(F)F)c1 [Compound 32, 1-[3-(3,3-Difluoropropyl)-5-(trifluoromethyl)phenyl]-3-[4-(1H-pyrrolo[2,3-b]pyridin-4-yloxy)phenyl]urea] | 15 nM | 1200 nM | – |
| – | – | – | – | 18 µg/mL (≈ 36.9 µM) | – | O=C(Nc1ccc(Oc2ccnc3[nH]ncc23)cc1)Nc1ccc(CCCCF)c(C(F)(F)F)c1 [Compound 35, 1-[4-(4-Fluorobutyl)-3-(trifluoromethyl)phenyl]-3-[4-(1H-pyrazolo[3,4-b]pyridin-4-yloxy)phenyl]urea] | – | – | – |
| 1600 nM | – | 82 nM | 9.1 nM | – | – | O=C(Nc1ccc(Oc2ccnc3[nH]ccc23)cc1)Nc1cc(CCCF)cc(C(F)(F)F)c1 [Compound 29, 1-[3-(3-Fluoropropyl)-5-(trifluoromethyl)phenyl]-3-[4-(1H-pyrrolo[2,3-b]pyridin-4-yloxy)phenyl]urea] | 8 nM | 1100 nM | – |
| – | – | – | – | 19 µg/mL (≈ 41.4 µM) | 18 nM | O=C(Nc1ccc(Oc2ccnc3[nH]ncc23)cc1)Nc1cc(CCF)cc(C(F)(F)F)c1 [Compound 24, 1-[3-(2-Fluoroethyl)-5-(trifluoromethyl)phenyl]-3-[4-(1H-pyrazolo[3,4-b]pyridin-4-yloxy)phenyl]urea] | – | – | – |
| – | – | 64 nM | 1.3 nM | – | – | O=C(Nc1ccc(Oc2ccnc3[nH]ccc23)cc1)Nc1cc(CCCCF)cc(C(F)(F)F)c1 [Compound 38, 1-[3-(4-Fluorobutyl)-5-(trifluoromethyl)phenyl]-3-[4-(1H-pyrrolo[2,3-b]pyridin-4-yloxy)phenyl]urea] | – | – | – |
| – | – | 19 nM | 3.7 nM | – | 6.9 nM | O=C(Nc1ccc(Oc2ccnc3[nH]ncc23)cc1)Nc1ccc(CCF)c(C(F)(F)F)c1 [Compound 23, 1-[4-(2-Fluoroethyl)-3-(trifluoromethyl)phenyl]-3-[4-(1H-pyrazolo[3,4-b]pyridin-4-yloxy)phenyl]urea] | – | – | – |
